{"source": "patent US6406701B1", "about": "“Method and compositions for preventing or reducing HIV infection” (priority 2000, dated 2002)", "molecules": {"B1": {"name": "Thioredoxin: Human Thioredoxin purified from CD4+ T MP6 cells; uncompetitive inhibitor of es-LAPase; also linked to EDC/DADPA matrix (protein, UniProt P10599 2-105, looked up)", "Thioredoxin": "VKQIESKTAFQEALDAAGDKLVVVDFSATWCGPCKMIKPFFHSLSEKYSNVIFLEVDVDDCQDVASECEVKCMPTFQFFKKGQKVGEFSGANKEKLEATINELV", "modifications": "linked to EDC/DADPA matrix"}}, "key": {"[1]": {"test_system": "HUT78 cells", "assay": "Extracellular LAPase activity of HUT78 cells incubated with 17-β-Estradiol", "assay_type": "cell-based"}, "[2]": {"test_system": "breast carcinoma parental cells", "assay": "LAPase release from primary breast carcinoma parental cells after estrogen stimulation (supernatants immunoprecipitated with MAb 7B6, fluorometric assay)", "assay_type": "cell-based, human", "method": "(§1) Control cells were cultured in the absence of 17-β-Estradiol.). During the same period, LAPase in cell supernatants of control cells remain unchanged. In addition, LAPase activity was determined in supernatants of primary parental cell lines immunoprecipitated with anti-LAP-Protein G MAb 7B6 bound antibodies. […] In addition, there was no effect of estrogen incubation on LAPase activity in purified preparations of this enzyme alone.\nPrimary parental breast carcinoma cells obtained from human tumour biopsies were stimulated with 100 nM 17-β-Estradiol for 24 hours or cell media alone as a control. The cell media was RPMI 1640 medium+10% FCS+100 U/ml Penicillin+100 μg/ml Streptomycin. Cell supernatants were collected and then dialyzed against PBS in seamless cellulose tubing (MW 12,400) for 12 hours at 4° C. Es-LAPase was subsequently purified from the dialyzed cell supernatants using HPLC-gel permeation followed by DEAE-Cellulose and Bestatin-Sepharose affinity Chromatography. Briefly, the cell supernatant was applied to a Bio-Sil SEC-250 column (600×7.5 mm) previously equilibrated in a buffer containing 100 mM Sodium Phosphate buffer pH 6.8, 100 mM Na2SO4, 1 μM ZnCl2 and 10% glycerol. […]\nEs-LAPase activities were determined fluorometrically using leucine-b-naphthylamide as the substrate [Kuramochi, H., et al. (1987) J. Antibiot., 40,1605-1611]."}, "[3]": {"test_system": "LAPase", "assay": "Estrogen incubation with purified LAPase preparations", "assay_type": "biochemical", "details": "purified enzyme alone", "method": "as §1"}, "[4]": {"test_system": "HIV", "assay": "HIV infectivity of HUT78 cells by reverse transcriptase activity with or without 17-β-Estradiol", "details": "for RT Activity: estrogen 10^−7 M", "protocol": "The sensitivity of CD4^+ T-HUT78 cells to HIV viral infection was determined by measuring the activity of reverse transcriptase in cells infected in the presence/absence of 17-β-Estradiol."}, "[5]": {"test_system": "HIV-1 (HTLVIIIb)", "assay_type": "cell-based", "details": "for Cytopathicity / Proviral Load: anti-estrogen 10^−7M combined with Mab 7B6 and thioredoxin matrices", "method": "(§2) In the continued presence of each of the factors aforementioned, the cells were subsequently infected at a multiplicity of two infective viral particles per cell for two hours at 25° C. with constant agitation in a final volume of 1.0 ml. […] Syncytium formation was evaluated by light microscopy on days 3, 5 and 7."}, "[6]": {"test_system": "HIV-1 (HTLVIIIb)", "assay_type": "cell-based", "details": "Day 5 post-infection; anti-estrogen 10^−7M combined with Mab 7B6 and thioredoxin matrices", "method": "as §2\nPrior to infection, HUT78 cells were washed three times with PBS and the cell viability was determined. Infection was performed as described above. At indicated time intervals, 1.0 mil aliquots of were taken and p24 antigen quantified using a commercial ELISA kit (p24 Antigen Capture ELISA, ABBOTT Diagnostics Division), following the instructions of the manufacturer."}, "[7]": {"test_system": "es-LAPase", "assay": "es-LAPase enzyme kinetics and inhibition (l-leucine-β-naphthylamide, 330 nm)", "assay_type": "biochemical, human", "details": "for es-LAPase reaction rate versus control es-LAPase (FIG. 3): 167 μM Bestatin, 167 μM reduced glutathione, 17 μM reduced thioredoxin; for mode of es-LAPase inhibition: from Vmax, Km, Ki of Table 4", "method": "The kinetic assays were performed using a Spectronic Genesys 5 spectrophotometer from Milton Roy (Rochester, N.Y.). Absorbance was recorded every sixty seconds, over a period of 30 min. Enzyme kinetic assays were performed using 8.0×10^−2 U of es-LAPase in a final reaction volume of 600 μl and triplicate samples. […] A corresponding blank without es-LAPase was used as baseline. Both of the cuvettes were transferred to the spectrophotometer where the 1-leucine-β-naphthylamide solution was added last, marking time zero of the reaction."}, "[8]": {"test_system": "HIV", "details": "Tamoxifen concentrations of 10^−6M or higher; cited from earlier work"}, "[9]": {"details": "es-LAPase with 167 μM inhibitor"}}, "note": "Like-named read-outs stand apart in the source and are kept apart here.", "data": [{"molecule": "17-β-Estradiol", "values": [{"measurement": "concentration of maximum stimulation of LAPase release", "setting": "[1]", "value": "10^−7 M"}, {"measurement": "LAPase activity, 17-β-Estradiol Stimulation", "setting": "[1]; [β-Estradiol] 10^−5 M", "value": 10.8, "unit": "U* × 10^−5/ml"}, {"measurement": "LAPase activity, 17-β-Estradiol Stimulation", "setting": "[1]; [β-Estradiol] 10^−6 M", "value": 20.4, "unit": "U* × 10^−5/ml"}, {"measurement": "LAPase activity, 17-β-Estradiol Stimulation", "setting": "[1]; [β-Estradiol] 10^−7 M", "value": 148.6, "unit": "U* × 10^−5/ml"}, {"measurement": "LAPase activity, 17-β-Estradiol Stimulation", "setting": "[1]; [β-Estradiol] 10^−8 M", "value": 110.7, "unit": "U* × 10^−5/ml"}, {"measurement": "extracellular LAPase activity of estrogen stimulated cells", "setting": "[2]; 100 nM, 24 hours, supernatants immunoprecipitated with anti-LAP-Protein G MAb 7B6", "value": "7.7×10^−5 U/ml"}, {"measurement": "estrogen concentration of maximum release of LAPase", "setting": "[2]; breast carcinoma parental cells, 24 hours of incubation", "value": 100, "unit": "nM"}, {"measurement": "effect of estrogen incubation on LAPase activity in purified preparations of the enzyme", "setting": "[3]", "value": "no effect"}, {"measurement": "HIV viral infectivity (RT activity) relative to control cells infected in the absence of estrogen", "setting": "[4]; 3 days and 5 days post infection", "value": "approximately 4 times"}, {"measurement": "RT Activity", "setting": "[4]; Day 0 (Infection)", "value": 0.68, "unit": "cpm × 10^2/10 μl"}, {"measurement": "RT Activity", "setting": "[4]; Day 3 (Post Infection)", "value": 72.42, "unit": "cpm × 10^2/10 μl"}, {"measurement": "RT Activity", "setting": "[4]; Day 5 (Post Infection)", "value": 124.44, "unit": "cpm × 10^2/10 μl"}]}, {"molecule": "C#C[C@]1(O)CC[C@H]2[C@@H]3CC[C@H]4C[C@@H](O)CC[C@@H]4[C@H]3CC[C@@]21C", "note": "[3β,5α-tetrahydro Norethisterone]", "values": [{"measurement": "Cytopathicity", "setting": "[5]; Day 5 post-infection", "value": 0, "unit": "Syncytia/well"}, {"measurement": "Proviral Load", "setting": "[5]; Day 5 post-infection", "value": 2, "unit": "copies"}, {"measurement": "P24", "setting": "[6]", "value": 0, "unit": "nmol/mL"}]}, {"molecule": "C[C@]12CCC(=O)C(O)=C1CC[C@@H]1[C@@H]2CC[C@]2(C)C(=O)CC[C@@H]12", "note": "[4-hydroxyandrostenedione]", "values": [{"measurement": "Cytopathicity", "setting": "[5]; Day 5 post-infection", "value": "4.0 ± 0.4", "unit": "Syncytia/well"}, {"measurement": "Proviral Load", "setting": "[5]; Day 5 post-infection", "value": 12, "unit": "copies"}, {"measurement": "P24", "setting": "[6]", "value": "0.02 ± .001 nmol/mL"}]}, {"molecule": "CC(C)C[C@H](NC(=O)[C@@H](O)[C@H](N)Cc1ccccc1)C(=O)O", "note": "[Bestatin]", "values": [{"measurement": "es-LAPase reaction rate versus control es-LAPase (FIG. 3)", "setting": "[7]", "value": "clearly inhibits"}, {"measurement": "Vmax", "setting": "[7]; [9]", "value": "34.0 ± 3.9 10^−6 M/min"}, {"measurement": "mode of es-LAPase inhibition", "setting": "[7]", "value": "competitive"}, {"measurement": "HIV-1 proviral copies", "setting": "[5]; Day 0 post-infection, 120 μg/ml", "value": 0, "unit": "copies"}, {"measurement": "HIV-1 proviral copies", "setting": "[5]; Day 3 post-infection, 120 μg/ml", "value": "7 ± 2", "unit": "copies"}, {"measurement": "HIV-1 proviral copies", "setting": "[5]; Day 5 post-infection, 120 μg/ml", "value": "29 ± 3", "unit": "copies"}, {"measurement": "HIV-1 proviral copies", "setting": "[5]; Day 7 post-infection, 120 μg/ml", "value": "457 ± 12", "unit": "copies"}]}, {"molecule": "CC/C(=C(/c1ccc(OCCN(C)C)cc1)c1cccc(O)c1)c1ccccc1", "note": "[Droloxifene]", "values": [{"measurement": "Cytopathicity", "setting": "[5]; Day 5 post-infection", "value": "5.2 ± 0.6", "unit": "Syncytia/well"}, {"measurement": "Proviral Load", "setting": "[5]; Day 5 post-infection", "value": 14, "unit": "copies"}, {"measurement": "P24", "setting": "[6]", "value": "0.04 ± .003 nmol/mL"}]}, {"molecule": "N[C@@H](CCC(=O)N[C@@H](CS)C(=O)NCC(=O)O)C(=O)O", "note": "[Glutathione]", "values": [{"measurement": "es-LAPase reaction rate versus control es-LAPase (FIG. 3)", "setting": "[7]", "value": "significant slower rates"}, {"measurement": "Vmax", "setting": "[7]; [9]", "value": "17.2 ± 1.5 10^−6 M/min"}, {"measurement": "mode of es-LAPase inhibition", "setting": "[7]", "value": "noncompetitive"}]}, {"molecule": "CC/C(=C(\\c1ccc(I)cc1)c1ccc(OCCN2CCCC2)cc1)c1ccccc1", "note": "[Idoxifene]", "values": [{"measurement": "Cytopathicity", "setting": "[5]; Day 5 post-infection", "value": 0, "unit": "Syncytia/well"}, {"measurement": "Proviral Load", "setting": "[5]; Day 5 post-infection", "value": 0, "unit": "copies"}, {"measurement": "P24", "setting": "[6]", "value": 0, "unit": "nmol/mL"}]}, {"molecule": "O=C(c1ccc(OCCN2CCCCC2)cc1)c1c(-c2ccc(O)cc2)sc2cc(O)ccc12", "note": "[Raloxifene]", "values": [{"measurement": "Cytopathicity", "setting": "[5]; Day 5 post-infection", "value": "3.3 ± 0.1", "unit": "Syncytia/well"}, {"measurement": "Proviral Load", "setting": "[5]; Day 5 post-infection", "value": 8, "unit": "copies"}, {"measurement": "P24", "setting": "[6]", "value": "0.01 ± .002 nmol/mL"}]}, {"molecule": "CC/C(=C(\\c1ccccc1)c1ccc(OCCN(C)C)cc1)c1ccccc1", "note": "[Tamoxifen]", "values": [{"measurement": "Cytopathicity", "setting": "[5]; Day 5 post-infection", "value": 0, "unit": "Syncytia/well"}, {"measurement": "Proviral Load", "setting": "[5]; Day 5 post-infection", "value": 0, "unit": "copies"}, {"measurement": "P24", "setting": "[6]", "value": 0, "unit": "nmol/mL"}, {"measurement": "inhibition of HIV infection", "setting": "[8]", "value": "incomplete inhibition"}]}, {"molecule": "B1", "values": [{"measurement": "es-LAPase reaction rate versus control es-LAPase (FIG. 3)", "setting": "[7]", "value": "significant slower rates"}, {"measurement": "Km", "setting": "[7]; es-LAPase with 17 μM inhibitor", "value": "23.4 ± 0.6", "unit": "µM"}, {"measurement": "Vmax", "setting": "[7]; es-LAPase with 17 μM inhibitor", "value": "5.31 ± 0.02 10^−6 M/min"}, {"measurement": "mode of es-LAPase inhibition", "setting": "[7]", "value": "uncompetitive"}, {"measurement": "HIV-1 proviral copies", "setting": "[5]; Day 0 post-infection, matrix-bound, 40 ng/5 ml", "value": 0, "unit": "copies"}, {"measurement": "HIV-1 proviral copies", "setting": "[5]; Day 3 post-infection, matrix-bound, 40 ng/5 ml", "value": "4 ± 1", "unit": "copies"}, {"measurement": "HIV-1 proviral copies", "setting": "[5]; Day 5 post-infection, matrix-bound, 40 ng/5 ml", "value": "12 ± 3", "unit": "copies"}, {"measurement": "HIV-1 proviral copies", "setting": "[5]; Day 7 post-infection, matrix-bound, 40 ng/5 ml", "value": "122 ± 8", "unit": "copies"}, {"measurement": "number of HIV-1 proviral copies compared to control cells (in words)", "setting": "[5]; matrix-bound, incubated with HUT 78 cells 7 hours prior to infection", "value": "significantly reduces"}]}]}
